Results on 9 compounds are retold here after ChEMBL document CHEMBL1150448, “Dihydropyridines: a new class of angiotensin II antagonists” (Bioorg Med Chem Lett, 1994).

The target of assay [1] is T1, Angiotensin II receptor (AT-1) type-1 (Rattus norvegicus, UniProt P29089+P25095).
T1 sequence (P29089 whole entry): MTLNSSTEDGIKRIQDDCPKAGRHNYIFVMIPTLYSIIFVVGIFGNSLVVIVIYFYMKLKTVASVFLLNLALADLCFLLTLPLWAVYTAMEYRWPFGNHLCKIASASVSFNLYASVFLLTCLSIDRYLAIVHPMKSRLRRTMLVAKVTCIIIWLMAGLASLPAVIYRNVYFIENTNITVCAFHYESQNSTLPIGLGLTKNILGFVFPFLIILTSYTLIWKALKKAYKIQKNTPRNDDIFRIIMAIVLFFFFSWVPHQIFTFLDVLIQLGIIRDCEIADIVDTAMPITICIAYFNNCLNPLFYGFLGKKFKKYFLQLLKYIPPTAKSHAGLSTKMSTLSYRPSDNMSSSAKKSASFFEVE
T1 sequence (P25095 whole entry): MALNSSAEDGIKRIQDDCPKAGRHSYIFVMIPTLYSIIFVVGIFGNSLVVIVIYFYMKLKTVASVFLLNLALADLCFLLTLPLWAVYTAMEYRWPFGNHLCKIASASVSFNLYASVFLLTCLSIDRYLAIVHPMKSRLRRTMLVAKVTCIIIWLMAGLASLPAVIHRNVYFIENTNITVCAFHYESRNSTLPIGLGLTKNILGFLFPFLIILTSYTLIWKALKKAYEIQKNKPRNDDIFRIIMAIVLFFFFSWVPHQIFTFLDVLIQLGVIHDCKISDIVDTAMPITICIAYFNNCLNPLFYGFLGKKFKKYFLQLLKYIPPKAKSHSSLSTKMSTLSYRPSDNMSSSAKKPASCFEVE
Put plainly: Binding affinity to Angiotensin II receptor, type 1 as displacement of 125I-Sar, Ile-AII from rat adrenal cortex membranes. In kind it is cell membranes, Membrane. Background: Loss of bound radioactivity is the signal in a displacement assay; it reports binding, not function.

The next assay concerns Rattus norvegicus. Put plainly: Dose required to produce 30 […] decrease in blood pressure that lasted for >6 hr. The format is functional.
Assay [2] in a line: Compound was evaluated for inhibitory activity against PAF (platelet activating factor) induced platelet aggregation. The format is functional.
A short description of assay [3]: Calcium channel blocking activity (CCB). In kind it is functional.

In the case of `CCCCc1nc2cccnc2n1-c1ccc(CCO/C(O)=C2\C(C(C)C)=NC(C)=C(C(=O)Nc3cccnc3)C2c2ccccc2Cl)cc1` (stereo in doubt; 12), in assay [1], the IC50 came out at 140 nM.

Take `CCCCc1nc2cccnc2n1-c1ccc(CCO/C(O)=C2\C(C(C)C)=NC(C)=C(C(=O)Nc3cccnc3)C2c2ccccc2Cl)cc1` (single isomer, unassigned; (-)): in assay [1], the IC50 came out at 130 nM. Further, the Dose with Rattus norvegicus stood at 60 mg/kg.

In the case of `CCCCc1nc2cccnc2n1-c1ccc(CCO/C(O)=C2\C(C)=NC(C)=C(C(=O)Nc3ccccn3)C2c2ccccc2Cl)cc1` (stereo unspecified), the IC50 in assay [1] is 60 nM; in assay [2], above 100000 nM; in assay [3], 360 nM.

Turning to `CCCCc1nc2cccnc2n1CCCCCCCO/C(O)=C1\C(C(C)C)=NC(C)=C(C(=O)Nc2cccnc2)C1c1ccccc1Cl` (stereo unspecified), the IC50 in assay [1] is 2000 nM.

`CCCCc1nc2cccnc2n1CCCCCCO/C(O)=C1\C(C(C)C)=NC(C)=C(C(=O)Nc2cccnc2)C1c1ccccc1Cl` (stereo unspecified) showed an IC50 in assay [1] of 100 nM.

For the compound `CCCCc1nc2cccnc2n1-c1ccc(CCO/C(O)=C2\C(C(C)C)=NC(C)=C(C(=O)Nc3ccccn3)C2c2ccccc2Cl)cc1` (stereo unspecified), the results for the 50% inhibitory concentration (IC50) in assay [1], in assay [2] and in assay [3] were 120 nM, above 100000 nM and above 100000 nM, respectively.

The compound `CCCCc1nc2cccnc2n1CCCCCO/C(O)=C1\C(C(C)C)=NC(C)=C(C(=O)Nc2cccnc2)C1c1ccccc1Cl` (stereo unspecified) came in with a half-inhibitory concentration (IC50) in assay [1] of 200 nM.

In the case of `CCCCc1nc2cccnc2n1-c1ccc(CCO/C(O)=C2\C(C(C)C)=NC(C)=C(C(=O)Nc3cccnc3)C2c2ccccc2Cl)cc1` (single isomer, unassigned; (+)), the IC50 in assay [1] was determined as 5300 nM.

As to `CCCCc1nc2cccnc2n1-c1ccc(CCO/C(O)=C2\C(C(C)C)=NC(C)=C(C(=O)Nc3cccnc3)C2c2ccccc2Cl)cc1` (stereo in doubt), the IC50 was 600 nM in assay [1], 30 nM in assay [2] and above 100000 nM in assay [3].

In general, IC50 refers to the concentration needed to halve the response being measured.
